This is an account of results in publication PMC5864730, “Peptide ion channel toxins from the bootlace worm, the longest animal on Earth” (Scientific Reports, 2018).

Positions of bridges follow the written chain, without caps; N, C: chain ends. Non-standard residues stand in square brackets, D forms with d. No end group written: not given here. Hyp = O=C(O)[C@@H]1C[C@@H](O)CN1

One experiment deals with BgNaV1. The settings on record: cited from earlier work. The source says: (§1) The α-1 induced alterations of gating kinetics resemble the effects of other peptide toxins known to be binding to the so-called neurotoxin binding site 3[18],[19]. Such toxins trap the voltage-sensing segment S4 of domain 4 in its inward or dea ...
A further experiment concerns DmNaV1. The settings on record: cited from earlier work.
Excerpt: as §1

The target in experiment [1] is Blattella germanica voltage-gated sodium channel BgNaV1 (Blattella germanica) (UniProt O01307).
Experiment [2] concerns the target voltage-gated sodium channel NaV1.6 (not stated (mNaV1.6 in the methods, human in the results)) (UniProt Q9WTU3).

With ATX-II: sea anemone toxin, the inhibition of inactivation result in the experiment on BgNaV1 and in the experiment with DmNaV1 was “complete inhibition of the inactivation” each time.
Consider anthopleurin A: sea anemone toxin, for which the inhibition of inactivation result with BgNaV1 and with DmNaV1 was “complete inhibition of the inactivation” in each case.
In experiment [1], GCIATGSFCTLSKGCCTKNCGWNFKCN[Hyp][Hyp]NQK (disulfide 15-26, 2-16, 9-20) [nemertide α-1] yielded a two-electrode voltage clamp on oocytes: concentration-response curve of the toxin-induced modulation of BgNaV1 currents, EC50 of 8.6 nM. The molecule also showed a two-electrode voltage clamp on oocytes: concentration-response curve on NaV1.6, EC50 (Figure S4C) in experiment [2] of 800 nM.
